The assay concerns the target T1, RSV ribonucleoprotein (RNP) complexes (Human respiratory syncytial virus A, UniProt P28887).
T1 construct: The supernatant (S3) fraction, containing the enriched RSV RNP complexes, was collected; endogenous in cells; host or cells: HEp-2 cells infected with RSV A2; detergent-extracted crude S3 fraction
In words: RSV RNP assay (inhibition of RSV RNP transcription). The format is biochemical, RSV A2. Conditions: 90 minute incubation at 30° C., total radiolabeled transcripts. Here is the method:
RSV ribonucleoprotein (RNP) complexes were prepared from a method modified from Mason at al (1). HEp-2 cells were plated at a density of 7.1×10^4 cells/cm^2 in MEM+10% fetal bovine serum (FBS) and allowed to attach overnight at 37° C. (5% CO2). Following attachment, the cells were infected with RSV A2 (M01=5) in 35 mL MEM+2% FBS. At 20 hours post-infection, the media was replaced with MEM+2% FBS supplemented with 2 μg/mL actinomycin D and returned to 37° C. for one hour. The cells were then washed once with PBS and treated with 35 mL of PBS+250 μg/mL lyso-lecithin for one minute, after which all liquid was aspirated. The cells were harvested by scrapping them into 1.2 mL of buffer A [50 mM TRIS acetate (pH 8.0), 100 mM potassium acetate, 1 mM DTT and 2 μg/mL actinomycin D] and lysed by repeated passage through an 18 gauge needle (10 times). The cell lysate was placed in ice for 10 minutes and then centrifuged at 2400g for 10 minutes at 4° C. The supernatant (S1) was removed and the pellet (P1) was disrupted in 600 uL of Buffer B [10 mM TRIS acetate (pH 8.0), 10 mM potassium acetate and 1.5 mM MgCl2] supplemented with 1% Triton X-100 by repeated passage through an 18 gauge needle (10 times). The resuspended pellet was placed in ice for 10 minutes and then centrifuged at 2400g for 10 minutes at 4° C. The supernatant (S2) was removed and the pellet (P2) was disrupted in 600 uL of Buffer B supplemented with 0.5% deoxycholate and 0.1% Tween 40. The resuspended pellet was placed in ice for 10 minutes and then centrifuged at 2400g for 10 minutes at 4° C. The supernatant (S3) fraction, containing the enriched RSV RNP complexes, was collected and the protein concentration determined by UV absorbance at 280 nm. Aliquoted RSV RNP S3 fractions were stored at −80° C.
Transcription reactions contained 25 μg of crude RSV RNP complexes in 30 μL of reaction buffer [50 mM TRIS-acetate (pH 8.0), 120 mM potassium acetate, 5% glycerol, 4.5 mM MgCl2, 3 mM DTT, 2 mM ethyleneglycol-bis(2-aminoethylether)-tetraacetic acid (EGTA), 50 μg/mL BSA, 2.5 U RNasin (Promega), ATP, GTP, UTP, CTP and 1.5 uCi [α-^32P] NTP (3000 Ci/mmol)]. The radiolabeled nucleotide used in the transcription assay was selected to match the nucleotide analog being evaluated for inhibition of RSV RNP transcription. Cold, competitive NTP was added at a final concentration of one-half its Km (ATP=20 μM, GTP=12.5 μM, UTP=6 μM and CTP=2 μM). The three remaining nucleotides were added at a final concentration of 100 μM.
To determine whether nucleotide analogs inhibited RSV RNP transcription, compounds were added using a 6 step serial dilution in 5-fold increments. Following a 90 minute incubation at 30° C., the RNP reactions were stopped with 350 μL of Qiagen RLT lysis buffer and the RNA was purified using a Qiagen RNeasy 96 kit. Purified RNA was denatured in RNA sample loading buffer (Sigma) at 65° C. for 10 minutes and run on a 1.2% agarose/MOPS gel containing 2M formaldehyde. The agarose gel was dried and exposed to a Storm phosphorimager screen and developed using a Storm phosphorimager (GE Healthcare). The concentration of compound that reduced total radiolabeled transcripts by 50% (IC50) was calculated by non-linear regression analysis of two replicates.
T1 sequence (P28887 whole entry): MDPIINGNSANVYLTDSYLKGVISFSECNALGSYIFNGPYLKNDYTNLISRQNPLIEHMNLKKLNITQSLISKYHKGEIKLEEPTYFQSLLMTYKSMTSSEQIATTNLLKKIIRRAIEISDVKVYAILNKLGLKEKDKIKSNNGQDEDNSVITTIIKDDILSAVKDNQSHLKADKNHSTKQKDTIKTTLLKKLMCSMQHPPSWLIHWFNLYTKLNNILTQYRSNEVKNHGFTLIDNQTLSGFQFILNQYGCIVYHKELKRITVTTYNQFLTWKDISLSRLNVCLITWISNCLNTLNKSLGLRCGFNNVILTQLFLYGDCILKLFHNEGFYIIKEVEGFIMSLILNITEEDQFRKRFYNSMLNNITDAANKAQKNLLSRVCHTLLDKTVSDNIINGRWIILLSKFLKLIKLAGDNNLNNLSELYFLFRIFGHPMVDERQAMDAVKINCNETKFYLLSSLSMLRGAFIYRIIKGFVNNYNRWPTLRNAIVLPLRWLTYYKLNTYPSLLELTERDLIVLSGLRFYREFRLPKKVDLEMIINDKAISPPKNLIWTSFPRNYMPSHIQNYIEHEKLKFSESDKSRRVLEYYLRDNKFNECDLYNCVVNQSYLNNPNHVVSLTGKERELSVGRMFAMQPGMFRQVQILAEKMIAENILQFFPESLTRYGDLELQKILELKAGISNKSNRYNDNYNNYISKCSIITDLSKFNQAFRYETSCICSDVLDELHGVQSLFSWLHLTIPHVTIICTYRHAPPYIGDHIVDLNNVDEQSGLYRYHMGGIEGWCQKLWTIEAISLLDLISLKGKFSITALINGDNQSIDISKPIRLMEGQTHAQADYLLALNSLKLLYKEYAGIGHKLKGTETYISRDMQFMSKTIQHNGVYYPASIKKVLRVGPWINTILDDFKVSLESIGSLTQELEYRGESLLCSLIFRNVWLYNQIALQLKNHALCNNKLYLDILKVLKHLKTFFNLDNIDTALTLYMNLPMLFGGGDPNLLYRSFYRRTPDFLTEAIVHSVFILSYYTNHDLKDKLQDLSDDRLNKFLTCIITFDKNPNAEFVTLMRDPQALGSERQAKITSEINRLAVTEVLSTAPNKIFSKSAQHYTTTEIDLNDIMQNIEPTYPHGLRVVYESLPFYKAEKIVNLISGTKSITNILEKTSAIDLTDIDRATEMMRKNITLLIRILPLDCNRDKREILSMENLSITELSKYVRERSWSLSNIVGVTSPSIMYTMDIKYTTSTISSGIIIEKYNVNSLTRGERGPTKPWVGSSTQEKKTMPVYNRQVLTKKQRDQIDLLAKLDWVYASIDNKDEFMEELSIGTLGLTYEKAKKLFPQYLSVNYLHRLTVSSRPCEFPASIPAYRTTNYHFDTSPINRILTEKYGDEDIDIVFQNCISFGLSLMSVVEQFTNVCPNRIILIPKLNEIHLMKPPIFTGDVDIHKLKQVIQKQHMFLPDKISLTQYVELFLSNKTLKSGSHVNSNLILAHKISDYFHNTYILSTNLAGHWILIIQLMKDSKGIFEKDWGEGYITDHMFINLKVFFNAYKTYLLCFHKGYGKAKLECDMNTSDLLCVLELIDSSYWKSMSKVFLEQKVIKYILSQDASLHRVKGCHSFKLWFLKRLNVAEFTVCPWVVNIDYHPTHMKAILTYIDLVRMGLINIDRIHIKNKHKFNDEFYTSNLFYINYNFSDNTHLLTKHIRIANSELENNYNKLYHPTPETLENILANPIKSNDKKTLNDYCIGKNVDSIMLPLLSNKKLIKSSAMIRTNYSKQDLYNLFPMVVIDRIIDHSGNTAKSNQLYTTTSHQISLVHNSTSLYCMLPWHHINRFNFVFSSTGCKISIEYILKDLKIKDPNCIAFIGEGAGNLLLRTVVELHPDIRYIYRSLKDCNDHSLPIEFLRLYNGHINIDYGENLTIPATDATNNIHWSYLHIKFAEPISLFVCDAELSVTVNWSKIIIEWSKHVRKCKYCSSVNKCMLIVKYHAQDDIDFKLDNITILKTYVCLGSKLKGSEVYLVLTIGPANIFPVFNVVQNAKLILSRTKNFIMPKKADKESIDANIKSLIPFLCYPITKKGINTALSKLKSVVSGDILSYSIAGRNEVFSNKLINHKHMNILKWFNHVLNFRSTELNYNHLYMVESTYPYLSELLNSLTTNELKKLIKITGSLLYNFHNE
T1 sequence (P03421 whole entry, further chain): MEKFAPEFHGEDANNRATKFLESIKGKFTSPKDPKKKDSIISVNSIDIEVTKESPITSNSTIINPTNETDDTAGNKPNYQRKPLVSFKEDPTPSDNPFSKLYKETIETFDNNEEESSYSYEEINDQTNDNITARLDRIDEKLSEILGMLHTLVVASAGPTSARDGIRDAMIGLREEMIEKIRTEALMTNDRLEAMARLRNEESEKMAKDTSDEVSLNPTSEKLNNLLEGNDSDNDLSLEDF
One may read the IC50 as the point on the concentration scale where inhibition reaches its midpoint. Read a low IC50 as greater potency. With `C#C[C@]1(COP(=O)(O)OP(=O)(O)OP(=O)(O)O)O[C@@H](c2ccc3c(N)ncnn23)[C@H](F)[C@@H]1O` [Example 7, ((2R,3R,4R,5S)-5-(4-aminopyrrolo[1,24][1,2,4]triazin-7-yl)-2-ethynyl-4-fluoro-3-hydroxytetrahydrofuran-2-yl)methyl tetrahydrogen triphosphate], the IC50 was 1000 nM.

`N#C[C@]1(COP(=O)(O)OP(=O)(O)OP(=O)(O)O)O[C@@H](c2ccc3c(N)ncnn23)[C@H](O)[C@@H]1O` [Example 8, ((2R,3S,4R,5S)-5-(4-aminopyrrolo[1,2-f][1,2,4]triazin-7-yl)-2-cyano-3,4-dihydroxytetrahydrofuran-2-yl)methyl tetrahydrogen triphosphate] returned a half-maximal inhibitory concentration (IC50) of 25 nM. This IC50 is about 40-fold lower than that of the molecule before.

`[N-]=[N+]=N[C@]1(COP(=O)(O)OP(=O)(O)OP(=O)(O)O)O[C@@H](c2ccc3c(N)ncnn23)[C@H](O)[C@@H]1O` [Example 9, ((2R,3S,4R,5S)-5-(4-aminopyrrolo[2,1-f][1,2,4]triazin-7-yl)-2-azido-3,4-dihydroxytetrahydrofuran-2-yl)methyl tetrahydrogen triphosphate] showed a half-inhibitory concentration (IC50) of 120 nM.

`C=C[C@]1(COP(=O)(O)OP(=O)(O)OP(=O)(O)O)O[C@@H](c2ccc3c(N)ncnn23)[C@H](F)[C@@H]1O` [Example 17, ((2R,3R,4R,5S)-5-(4-aminopyrrolo[2,1-f][1,2,4]triazin-7-yl)-4-fluoro-3-hydroxy-2-vinyltetrahydrofuran-2-yl)methyl tetrahydrogen triphosphate] returned an IC50 of 560 nM.

Turning to `CC[C@]1(COP(=O)(O)OP(=O)(O)OP(=O)(O)O)O[C@@H](c2ccc3c(N)ncnn23)[C@H](F)[C@@H]1O` [Example 18, ((2R,3R,4R,5S)-5-(4-aminopyrrolo[2,1-f][1,2,4]triazin-7-yl)-2-ethyl-4-fluoro-3-hydroxytetrahydrofuran-2-yl)methyl tetrahydrogen triphosphate], the IC50 came out at 420 nM. This IC50 and that of the molecule before are within 1.5-fold of each other.

As to `[N-]=[N+]=N[C@]1(COP(=O)(O)OP(=O)(O)OP(=O)(O)O)O[C@@H](c2ccc3c(N)ncnn23)[C@H](F)[C@@H]1O` [Example 27, ((2R,3R,4R,5S)-5-(4-aminopyrrolo[2,1-f][1,2,4]triazin-7-yl)-2-azido-4-fluoro-3-hydroxytetrahydrofuran-2-yl)methyl tetrahydrogen triphosphate], the concentration for half-maximal inhibition (IC50) is 97 nM.

Consider `[N-]=[N+]=N[C@]1(COP(=O)(O)OP(=O)(O)OP(=O)(O)O)O[C@@H](c2cc(F)c3c(N)ncnn23)[C@H](F)[C@@H]1O` [Example 28, ((2R,3R,4R,5S)-5-(4-amino-5-fluoropyrrolo[2,1f-][1,2,4]triazin-7-yl)-2-azido-4-fluoro-3-hydroxytetrahydrofuran-2-yl)methyl tetrahydrogen triphosphate], for which the concentration for half-maximal inhibition (IC50) amounted to 86 nM. This IC50 and that of the molecule before are within 1.5-fold of each other.

As to `[N-]=[N+]=N[C@]1(COP(=O)(O)OP(=O)(O)OP(=O)(O)O)O[C@@H](c2ccc3c(N)nc(F)nn23)[C@H](F)[C@@H]1O` [Example 29, ((2R,3R,4R,5S)-5-(4-amino-2-fluoropyrrolo[2,1-f][1,2,4]triazin-7-yl)-2-azido-4-fluoro-3-hydroxytetrahydrofuran-2-yl)methyl tetrahydrogen triphosphate], inhibition was half-maximal at 80 nM (IC50).

In turn, `N#C[C@]1(COP(=O)(O)OP(=O)(O)OP(=O)(O)O)O[C@@H](c2cc(F)c3c(N)ncnn23)[C@H](O)[C@@H]1O` [Example 32, ((2R,3S,4R,5S)-5-(4-amino-5-fluoropyrrolo[2,1f-][1,2,4]triazin-7-yl)-2-cyano-3,4-dihydroxytetrahydrofuran-2-yl)methyl tetrahydrogen triphosphate] returned an IC50 of 22 nM.

Values taken from patent publication US9388208B2, “Pyrrolo[1,2-f][1,2,4]triazines useful for treating respiratory syncitial virus infections” (Gilead Sciences, Inc., priority 2013, dated 2016).
